Where two headings read alike, the source gives them in different places.
Key:
Human recombinant PTP1B = target: T1, Human recombinant PTP1B (Homo sapiens, UniProt P18031); experiment: Inhibition of tri-phosphorylated insulin receptor dodecaphosphopeptide dephosphorylation by hPTP1B (malachite green); type: biochemical; conditions: compound at 2.5 uM
T1 construct: made in house
T1 sequence (P18031 1-435): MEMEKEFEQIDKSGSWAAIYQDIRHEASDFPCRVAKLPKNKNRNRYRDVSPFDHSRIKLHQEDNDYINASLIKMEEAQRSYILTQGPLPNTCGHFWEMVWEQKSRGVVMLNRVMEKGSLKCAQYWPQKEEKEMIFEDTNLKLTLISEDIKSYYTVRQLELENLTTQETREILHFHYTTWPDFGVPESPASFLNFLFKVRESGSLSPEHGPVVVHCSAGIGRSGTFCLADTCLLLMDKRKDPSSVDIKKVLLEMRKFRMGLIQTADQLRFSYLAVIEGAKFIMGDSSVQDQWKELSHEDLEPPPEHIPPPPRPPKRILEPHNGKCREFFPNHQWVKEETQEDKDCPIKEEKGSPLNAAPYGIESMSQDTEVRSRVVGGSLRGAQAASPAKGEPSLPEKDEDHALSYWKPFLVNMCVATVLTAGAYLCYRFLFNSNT

diabetic (ob/ob) mice = experiment: Blood glucose lowering in diabetic (ob/ob) mice; type: in vivo; conditions: Mus musculus, po
[1] = read-out: % Change Insulin from Vehicle

Structure (SMILES)	percent of phosphatase control (change) at 2.5 uM (Human recombinant PTP1B)	change in vivo at 100 mg/kg (diabetic (ob/ob) mice; 96 h, plasma glucose on Day 4, 7 or 14, read-out: % Change Glucose from Vehicle) [%]	change in vivo at 100 mg/kg (diabetic (ob/ob) mice; [1]) [%]
CC1(COc2ccc(CC3SC(=O)NC3=O)cc2)CCCCC1 (centres unmarked) [Ciglitazone, 5-(4-(1-methylcyclohexylmethoxy)benzyl)-2,4-dione]	–	-43	-39
O=C(O)COc1ccc(-c2ccc(-c3c(Br)oc4ccccc34)cc2)cc1 [Example 6, [4′-(2-Bromo-benzofuran-3-yl)-biphenyl-4-yloxy]-acetic acid]	−15 (2.5 uM) %	–	–
O=C(c1ccccc1)c1oc2ccccc2c1-c1ccc(-c2ccc(OC(Cc3ccccc3)C(=O)O)cc2)cc1 (centres unmarked) [Example 14, 2-[4′-(2-Benzoyl-benzofuran-3-yl)-biphenyl-4-yloxy]-3-phenyl-propionic acid]	–	–	19.8

Now from value to compound, other results behind:

percent of phosphatase control (change) at 2.5 uM (Human recombinant PTP1B)	Structure (SMILES)	change in vivo at 100 mg/kg (diabetic (ob/ob) mice; 96 h, plasma glucose on Day 4, 7 or 14, read-out: % Change Glucose from Vehicle) [%]	change in vivo at 100 mg/kg (diabetic (ob/ob) mice; [1]) [%]
−36 (2.5 uM) %	COC(=O)[C@H](Cc1ccccc1)Oc1ccc(-c2ccc(-c3c(Cc4ccccc4)oc4ccccc34)cc2)cc1 [Example 23, (2S)-2-[4′-(2-Benzyl-benzofuran-3-yl)-biphenyl-4-yloxy]-3-phenyl-propionic acid methyl ester]	–	–
−58 (2.5 uM) %	O=C(O)C(Cc1ccccc1)Oc1ccc(-c2ccc(-c3c(Br)oc4ccccc34)cc2)cc1 (centres unmarked) [Example 7, 2-[4′-(2-Bromo-benzofuran-3-yl)-biphenyl-4-yloxy]-3-phenyl-propionic acid]	–	–
−41 (2.5 uM) %	O=C(O)[C@H](Cc1ccccc1)Oc1ccc(-c2ccc(-c3nc4ccccc4n3Cc3ccccc3)cc2)cc1 [Example 70, (2S)-2-[4′-(1-Benzyl-1H-benzimidazol-2-yl)-biphenyl-4-yloxy]-3-phenyl-propionic acid]	–	–
−43 (2.5 uM) %	CC(=O)c1ccc(-c2ccc(-c3ccc(O[C@@H](Cc4ccccc4)C(=O)[O-])cc3)cc2)s1.[Na+] [Example 71, (2S)-2-[4′-(5-acetyl-thiophen-2-yl)-biphenyl-4-yloxy]-3-phenyl-propionic acid sodium salt]	–	–

— patent US6391897B2, “Biphenyl oxo-acetic acids useful in the treatment of insulin resistance and hyperglycemia” (American Home Products Corporation, priority 1998, dated 2002)
